Test results from patent US9448244B2, “Compound, and method for measuring iron concentration by using novel compound as chelate color former” (WAKO PURE CHEMICAL INDUSTRIES, LTD., priority 2012, dated 2016).
Entries after “also recorded” stand apart in the source; their conditions may differ.

What was measured:
[1] = Absorbance measurement of iron chelate color development, first reagent solution pH 8.0 (Example 3 / Comparative Example 1); type: physicochemical; conditions: aqueous iron solution 200 μg/dL; R-1 tricine pH 8.0, R-2 tricine pH 8.0; color former 0.23 mM; 37° C.
Description: (§1) [Preparation of Reagent Solution]
(§2) (R-1) First Reagent Solution:
A 100 mM tricine buffer solution (pH 8.0) containing 0.5% (w/v) polyvinylpyrrolidone (K-90) (produced by Wako Pure Chemical Industries, Ltd.) was used as the first reagent solution.
(§3) (R-2) Second Reagent Solution:
A 100 mM tricine buffer solution (pH 8.0) containing 1 mM 4S-SPF synthesized in Example 1 or 1 mM 2S-4CPF synthesized in Example 2 was used as the second reagent solution.
Aqueous ferrous ammonium sulfate solution (containing 200 μg/dL iron) was prepared and used as a sample.
(§4) [Measurement of Absorbance]
For the above-described sample, the measurement of absorbance was carried out using the reagent solution described above, and using JEOL BM6050 automatic analyzer (manufactured by JEOL Co., Ltd.) by the following measurement conditions. In addition, when the measurement of reagent blank, measurement was carried out in the same manner using physiological saline instead of the sample.
Analysis method/Reaction time: [EPA] [10]
Measurement point: [44], [47]-[95], [98].
Wavelength (secondary/dominant): [694] [596]
Sample volume: 8 μL (2 times dilution at measurement)
Measurement temperature: 37° C.
It should be noted that the concentration of 4S-SPF or 2S-4CPF at the time of measurement was 0.23 mM.
A 100 mM tricine buffer solution (pH 8.0) containing 0.5% (w/v) polyvinylpyrrolidone (K-90) was used as the first reagent solution.
A 100 mM tricine buffer solution (pH 8.0) containing 1 mM CPF was used as the second reagent solution. The CPF was synthesized according to the method described in the Mitsuru Hoshino et al., Yakugaku Zassi, 2011, vol. 131, No. 7, p. 1095-1101 (Non-Patent Literature 1), and used.
Aqueous ferrous ammonium sulfate solution (containing 200 μg/dL iron) prepared and used as a sample.
For the above-described sample, the measurement of absorbance was carried out using the reagent solution described above and using JEOL BM6050 automatic analyzer (manufactured by JEOL Co., Ltd.) by the same measurement conditions as performed in Example 3. […]

[2] = Absorbance measurement of iron chelate color development, first reagent solution pH 3.2 (Example 4 / Comparative Example 2); type: physicochemical; conditions: aqueous iron solution 200 μg/dL; R-1 glycine pH 3.2 (condition of serum iron measurement), R-2 tricine pH 9.0; color former 0.23 mM
Description: as §1, §2
A 10 mM glycine buffer solution (pH 3.2) containing 0.5% (w/v) polyvinylpyrrolidone (K-90) (produced by Wako Pure Chemical Industries, Ltd.) was used as the first reagent solution.
as §3
A 100 mM tricine buffer solution (pH 9.0) containing 1 mM 4S-SPF which was synthesized in Example 1 or 1 mM 2S-4CPF which was synthesized in Example 2 was used as the second reagent solution.
The sample used was same as used in Example 3.
as §4
For the above-described sample, the measurement of absorbance was carried out using the reagent solution described above and using JEOL BM6050 automatic analyzer (manufactured by JEOL Co., Ltd.) by the same measurement conditions as performed in Example 3.
It should be noted that, the concentration of 4S-SPF or 2S-4CPF at the time of measurement was 0.23 mM.
A 10 mM glycine buffer solution (pH 3.2) containing 0.5% (w/v) polyvinylpyrrolidone (K-90) was used as the first reagent solution.
A 100 mM tricine buffer solution (pH 9.0) containing 1 mM CPF was used as the second reagent solution. CPF was synthesized according to the method described in the Mitsuru Hoshino et al., Yakugaku Zassi, 2011, vol. 131, No. 7, p. 1095-1101 (Non-Patent Literature 1), and used.
The sample used was the same as used in Example 4.
For the above-described sample, the measurement of absorbance was carried out using the reagent solution described above and using JEOL BM6050 automatic analyzer (manufactured by JEOL Co., Ltd.) by the same measurement conditions as performed in Example 4.
It should be noted that, the concentration of the CPF at the time of measurement was 0.23

For `O=C(O)c1ccccc1-c1c2cc(O)c(=O)cc-2oc2cc(O)c(O)cc12` [CPF, 9-(2-carboxyphenyl)-2,3,7-trihydroxy-6-fluorone, reference compound], the “color fading after color development” value [1] was “color fading after color development was observed” and the “color fading after color development” value [2] was “color fading after color development was observed; also recorded: fading after color development was remarkable”.

In the case of `O=c1cc2oc3cc(O)c(O)cc3c(-c3ccc(S(=O)(=O)O)cc3S(=O)(=O)O)c-2cc1O` [4S-SPF, 9-(2,4-disulfophenyl)-2,3,7-trihydroxy-6-fluorone], the “color fading after color development” value [1] is reported as “color fading was not confirmed” and the “color fading after color development” value [2] is reported as “fading after color development was not observed”.

With `O=C(O)c1ccc(-c2c3cc(O)c(=O)cc-3oc3cc(O)c(O)cc23)c(S(=O)(=O)O)c1` [2S-4CPF, 9-(4-carboxy-2-sulfophenyl)-2,3,7-trihydroxy-6-fluorone] the “color fading after color development” value [1] was “color fading was not confirmed” and the “color fading after color development” value [2] was “fading after color development was not observed”.
